Data reported in ChEMBL document CHEMBL1201861, “Genomics of Drug Sensitity in Cancer screening data, Wellcome Trust Sanger Institute”.

How the values were obtained:
Experiment in all cases: cells
GI-ME-N = type: functional, cell-based, Homo sapiens; conditions: Homo sapiens, GI-ME-N;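 further: growth inhibition of human GI-ME-N cells, read out with a cell viability assay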
Description: SANGER: Inhibition of human GI-ME-N cell growth in a cell viability assay.

D-336MG = type: functional, cell-based, Homo sapiens; conditions: Homo sapiens, D-336MG
Description: SANGER: Inhibition of human D-336MG cell growth in a cell viability assay.

KNS-81-FD = type: functional, cell-based, Homo sapiens; conditions: Homo sapiens, KNS-81-FD;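 further: growth inhibition of KNS-81-FD cells, read out with a cell viability assay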
Description: SANGER: Inhibition of human KNS-81-FD cell growth in a cell viability assay.

NB13 = type: functional, cell-based, Homo sapiens; conditions: Homo sapiens, NB13;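 further: cell viability readout measuring growth inhibition of human NB13 cells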
Description: SANGER: Inhibition of human NB13 cell growth in a cell viability assay.

EW-16 = type: functional, cell-based, Homo sapiens; conditions: Homo sapiens, EW-16;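 further: growth inhibition of human EW-16 cells, read out as cell viability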
Description: SANGER: Inhibition of human EW-16 cell growth in a cell viability assay.

TGBC1TKB = type: functional, cell-based, Homo sapiens; conditions: Homo sapiens, TGBC1TKB;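 further: growth inhibition of TGBC1TKB cells, read out by a cell viability assay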
Description: SANGER: Inhibition of human TGBC1TKB cell growth in a cell viability assay.

CTV-1 = type: functional, cell-based; conditions: Homo sapiens;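 further: growth inhibition of the cell line, read out with a cell viability assay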
Description: SANGER: Inhibition of human CTV-1 cell growth in a cell viability assay.

MHH-NB-11 = type: functional, cell-based, Homo sapiens; conditions: Homo sapiens, MHH-NB-11;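 further: growth inhibition of human MHH-NB-11 cells, read out by a cell viability assay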
Description: SANGER: Inhibition of human MHH-NB-11 cell growth in a cell viability assay.

NMC-G1 = type: functional, cell-based, Homo sapiens; conditions: Homo sapiens, NMC-G1;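 further: growth inhibition of the NMC-G1 cell line, measured with a cell viability read-out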
Description: SANGER: Inhibition of human NMC-G1 cell growth in a cell viability assay.

D-502MG = type: functional, cell-based, Homo sapiens; conditions: Homo sapiens, D-502MG
Description: SANGER: Inhibition of human D-502MG cell growth in a cell viability assay.

COLO-829 = type: functional, cell-based, Homo sapiens; conditions: Homo sapiens, COLO-829
Description: SANGER: Inhibition of human COLO-829 cell growth in a cell viability assay.

LB1047-RCC = type: functional, cell-based, Homo sapiens; conditions: Homo sapiens, LB1047-RCC;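 further: inhibition of cell growth, determined with a cell viability assay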
Description: SANGER: Inhibition of human LB1047-RCC cell growth in a cell viability assay.

JVM-2 = type: functional, cell-based; conditions: Homo sapiens;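 further: growth inhibition of JVM-2 cells determined by a cell viability assay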
Description: SANGER: Inhibition of human JVM-2 cell growth in a cell viability assay.

K562 = type: functional, cell-based; conditions: Homo sapiens
Description: SANGER: Inhibition of human K-562 cell growth in a cell viability assay.

RH-1 = type: functional, cell-based, Homo sapiens; conditions: Homo sapiens, RH-1;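 further: growth inhibition of human RH-1 cells, read out with a cell viability assay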
RXF 393 = type: functional, cell-based; conditions: Homo sapiens;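 further: growth inhibition of human RXF 393 cells, read out with a cell viability assay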
Becker = type: functional, cell-based, Homo sapiens; conditions: Homo sapiens, Becker;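 further: growth inhibition of Becker cells, read out with a cell viability assay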
Description: SANGER: Inhibition of human Becker cell growth in a cell viability assay.

SNU-5 = type: functional, cell-based; conditions: Homo sapiens;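 further: cell viability readout used to measure growth inhibition in human NCI-SNU-5 cells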
Description: SANGER: Inhibition of human NCI-SNU-5 cell growth in a cell viability assay.

DU-4475 = type: functional, cell-based; conditions: Homo sapiens
Description: SANGER: Inhibition of human DU-4475 cell growth in a cell viability assay.

DMS-79 = type: functional, cell-based; conditions: Homo sapiens;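 further: growth inhibition measured with a cell viability assay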
Description: SANGER: Inhibition of human DMS-79 cell growth in a cell viability assay.

D-542MG = type: functional, cell-based, Homo sapiens; conditions: Homo sapiens, D-542MG
Description: SANGER: Inhibition of human D-542MG cell growth in a cell viability assay.

GOTO = type: functional, cell-based, Homo sapiens; conditions: Homo sapiens, GOTO;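 further: growth inhibition of GOTO cells, read out by a cell viability assay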
Description: SANGER: Inhibition of human GOTO cell growth in a cell viability assay.

C2BBe1 = type: functional, cell-based, Homo sapiens; conditions: Homo sapiens, C2BBe1;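 further: growth inhibition of C2BBe1 cells, read out through a viability assay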
Description: SANGER: Inhibition of human C2BBe1 cell growth in a cell viability assay.

SNU-C2B = type: functional, cell-based, Homo sapiens; conditions: Homo sapiens, SNU-C2B;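 further: cell viability readout used to measure compound-driven suppression of SNU-C2B cell proliferation, IC50 marking half-maximal growth inhibition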
Description: SANGER: Inhibition of human SNU-C2B cell growth in a cell viability assay.

TE-11 = type: functional, cell-based, Homo sapiens; conditions: Homo sapiens, TE-11;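 further: growth inhibition of human TE-11 cells, read out by a cell viability assay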
Description: SANGER: Inhibition of human TE-11 cell growth in a cell viability assay.

Row | Structure (SMILES) | IC50 (GI-ME-N) [µM] | IC50 (D-336MG) [µM] | IC50 (KNS-81-FD) [µM] | IC50 (NB13) [µM] | IC50 (EW-16) [µM] | IC50 (TGBC1TKB) [µM] | IC50 (CTV-1) [µM] | IC50 (MHH-NB-11) [µM] | IC50 (NMC-G1) [µM] | IC50 (D-502MG) [µM] | IC50 (COLO-829) [µM] | IC50 (LB1047-RCC) [µM] | IC50 (JVM-2) [µM] | IC50 (K562) [µM] | IC50 (RH-1) [µM] | IC50 (RXF 393) [µM] | IC50 (Becker) [µM] | IC50 (SNU-5) [µM] | IC50 (DU-4475) [µM] | IC50 (DMS-79) [µM] | other results
1 | C=C1C(=O)O[C@@H]2C3O[C@]3(C)CC/C=C(\C)CC[C@@H]12 (some centres undefined) | > 5 | > 5 | > 5 | > 5 | > 5 | > 5 | > 5 | > 5 | > 5 | > 5 | > 5 | > 5 | > 5 | > 5 | > 5 | > 5 | > 5 | > 5 | > 5 | > 5 | IC50 (D-542MG): > 5 µM; IC50 (GOTO): > 5 µM; IC50 (C2BBe1): > 5 µM
2 | CC1=C2C[C@H]3[C@@H](CC=C4C[C@@H](O)CC[C@@]43C)[C@@H]2CC[C@]12O[C@@H]1C[C@H](C)CN[C@H]1[C@H]2C [CYCLOPAMINE] | > 16 | > 16 | > 16 | > 16 | > 16 | > 16 | > 16 | > 16 | > 16 | > 16 | > 16 | > 16 | > 16 | > 16 | > 16 | > 16 | > 16 | > 16 | > 16 | > 16 | IC50 (D-542MG): > 16 µM; IC50 (GOTO): > 16 µM; IC50 (C2BBe1): > 16 µM
3 | CS(=O)(=O)CCNCc1ccc(-c2ccc3ncnc(Nc4ccc(OCc5cccc(F)c5)c(Cl)c4)c3c2)o1 [LAPATINIB] | > 2 | > 2 | > 2 | > 2 | > 2 | > 2 | > 2 | > 2 | > 2 | > 2 | > 2 | > 2 | > 2 | > 2 | > 2 | > 2 | > 2 | > 2 | > 2 | > 2 | IC50 (D-542MG): > 2 µM; IC50 (GOTO): > 2 µM; IC50 (C2BBe1): > 2 µM
4 | CCc1nc(N)nc(N)c1-c1ccc(Cl)cc1 [PYRIMETHAMINE] | 1.4 | > 20 | > 20 | > 20 | 15.8 | > 20 | 2.48 | 13.7 | > 20 | > 20 | 7.28 | > 20 | > 20 | > 20 | > 20 | > 20 | > 20 | > 20 | > 20 | > 20 | IC50 (D-542MG): > 20 µM; IC50 (GOTO): > 20 µM; IC50 (C2BBe1): > 20 µM
5 | O=C(/C=C/c1ccccc1)NC(NC(=S)Nc1cccc2cccnc12)C(Cl)(Cl)Cl (centres undefined) [SALUBRINAL] | > 16 | 15.1 | > 16 | > 16 | > 16 | > 16 | > 16 | > 16 | > 16 | > 16 | > 16 | > 16 | > 16 | 11 | > 16 | > 16 | 5.79 | > 16 | > 16 | > 16 | IC50 (D-542MG): 13.4 µM; IC50 (GOTO): > 16 µM; IC50 (C2BBe1): > 16 µM
6 | CN1CCN(CCOc2cc(OC3CCOCC3)c3c(Nc4c(Cl)ccc5c4OCO5)ncnc3c2)CC1 [SARACATINIB] | > 2 | 0.503 | > 2 | > 2 | 1.55 | > 2 | 0.0614 | > 2 | > 2 | > 2 | > 2 | 1.55 | > 2 | 0.45 | > 2 | 1.24 | > 2 | > 2 | > 2 | > 2 | IC50 (SNU-C2B): > 2 µM; IC50 (TE-11): 1.43 µM; IC50 (GOTO): > 2 µM; IC50 (C2BBe1): 1.21 µM
7 | CO[C@H]1C[C@@H]2CC[C@@H](C)[C@@](O)(O2)C(=O)C(=O)N2CCCC[C@H]2C(=O)O[C@H]([C@H](C)C[C@@H]2CC[C@@H](O)[C@H](OC)C2)CC(=O)[C@H](C)/C=C(\C)[C@@H](O)[C@@H](OC)C(=O)[C@H](C)C[C@H](C)/C=C/C=C/C=C/1C [SIROLIMUS] | > 0.1 | > 0.1 | > 0.1 | 0.00436 | 0.0269 | 0.00269 | > 0.1 | > 0.1 | 0.0337 | > 0.1 | > 0.1 | 0.0347 | > 0.1 | > 0.1 | > 0.1 | > 0.1 | 0.0411 | > 0.1 | > 0.1 | > 0.1 | IC50 (SNU-C2B): > 0.1 µM; IC50 (TE-11): 0.0772 µM; IC50 (GOTO): > 0.1 µM; IC50 (C2BBe1): > 0.1 µM
8 | CNC(=O)c1cc(Oc2ccc(NC(=O)Nc3ccc(Cl)c(C(F)(F)F)c3)cc2)ccn1 [SORAFENIB] | > 4 | > 4 | > 4 | > 4 | > 4 | > 4 | > 4 | > 4 | > 4 | > 4 | > 4 | > 4 | > 4 | > 4 | > 4 | > 4 | > 4 | > 4 | > 4 | > 4 | IC50 (D-542MG): > 4 µM; IC50 (GOTO): > 4 µM; IC50 (C2BBe1): > 4 µM
9 | CCC(=O)N1CCN(c2ccc(-n3c(=O)ccc4cnc5ccc(-c6cnc7ccccc7c6)cc5c43)cc2C(F)(F)F)CC1 [TORIN1] | 0.18 | 0.266 | 0.113 | 0.0478 | 0.0119 | 0.00379 | 0.0655 | > 1.2 | 0.0345 | > 1.2 | 0.207 | 0.0249 | > 1.2 | 0.0912 | 0.28 | 0.0946 | 0.0642 | 0.136 | 0.0917 | > 1.2 | IC50 (SNU-C2B): 0.243 µM; IC50 (TE-11): 0.0237 µM; IC50 (GOTO): 0.207 µM; IC50 (C2BBe1): 0.137 µM
10 | Cc1cc(Nc2cc(N3CCN(C)CC3)nc(Sc3ccc(NC(=O)C4CC4)cc3)n2)n[nH]1 [TOZASERTIB] | > 2 | > 2 | > 2 | 0.28 | 0.238 | > 2 | 0.588 | > 2 | > 2 | > 2 | > 2 | > 2 | > 2 | 0.435 | > 2 | > 2 | > 2 | > 2 | 1.02 | > 2 | IC50 (SNU-C2B): > 2 µM; IC50 (TE-11): 0.15 µM; IC50 (GOTO): > 2 µM; IC50 (C2BBe1): > 2 µM
